Results: patent publication US7537775B2, “Low pH skin care compositions containing dehydroacetic acid” (The Procter & Gamble Company, priority 2005, dated 2009)

Assay: Stability of dehydroacetic acid in aqueous low-pH skin care compositions
Type: physicochemical
Conditions: observation from formulation attempts
Text: Dehydroacetic acid also has proven effective in improving skin texture and appearance, and has the additional benefit of reducing oily skin. See, for example, Biederman et al., U.S. Pat. No. 6,150,403. […] Therefore, a need remains for stable, low-pH skin care compositions to effect delivery of dehydroacetic acid, either alone or in combination with other low-pH skin care actives.
The present invention describes skin care compositions in which dehydroacetic acid is stabilized at a pH of about 4.5 and below. […] To effect stabilization of dehydroacetic acid, the compositions of the present invention include oils that have both an optimal solubility parameter and limited solubility in water. The present invention describes stable skin care compositions made by a procedure that utilizes this combination of properties to stabilize dehydroacetic acid in its active form at a low-pH.
Herein, “stable” and “stability” mean compositions which are substantially unaltered in chemical or physical state. […] Transport and storage conditions may include prolonged exposure to temperatures of from about −50° F. to about 150° F. Stability may be determined either by empirical observation or by appropriate methods of chemical analysis that would be known to one of skill in the art.

In the case of `CC(=O)C1C(=O)C=C(C)OC1=O` (stereo not shown) [dehydroacetic acid, 3-acetyl-6-methyl-2H-pyran-2,4,(3H)-dione], the “pH below which dehydroacetic acid begins to exhibit instability” value is reported as “below 7.0”.
